ChEMBL document CHEMBL4483862, “Open-source discovery of chemical leads for next-generation chemoprotective antimalarials” (2018)

Test system: Plasmodium berghei
Experiment: Luciferase/luciferin-expressing antifolate-resistant parasites were used to infect a culture of HepG2 cells that were pre-incubated with compounds. Infected hepatocytes emit light due to the luciferase reaction. Assay results are presented as the percent inhibition of light emission compared to control. […]
Format: functional
Conditions: sporozoite; for IC90: read-out: LUCIFERASE INFECTION ASSAY - IC90

| SMILES | IC90 [µM] | further results |
| --- | --- | --- |
| O=C(NCc1ccc(Oc2ccc(F)cc2)cc1)C1Cc2ccccc2O1 (stereo not given) | 3.84 | IC50 (HEPG2TOX_HILL_SLOPE 1.58, HEPG2TOX_R_SQUARED 0.911, PBLUC_HILL_SLOPE 12.2, PBLUC_R_SQUARED 0.351, read-out: LUCIFERASE INFECTION ASSAY - IC50): 3.21 µM |
| COc1cn(-c2ccccc2)nc1C(=O)N1CCc2ccccc21 | 0.243 | IC50 (HEPG2TOX_HILL_SLOPE 1.58, HEPG2TOX_R_SQUARED 0.907, PBLUC_HILL_SLOPE 2.39, PBLUC_R_SQUARED 0.888, read-out: LUCIFERASE INFECTION ASSAY - IC50): 0.0972 µM |
| CN(C)c1ccc(-c2cc(Nc3cccc(OCc4ccccc4)c3)ncn2)cc1 | 1.61 | IC50 (HEPG2TOX_HILL_SLOPE 1.6, HEPG2TOX_R_SQUARED 0.897, PBLUC_HILL_SLOPE 1.97, PBLUC_R_SQUARED 0.838, read-out: LUCIFERASE INFECTION ASSAY - IC50): 0.526 µM |
| COc1ccccc1-c1ccc2ncc(-c3cccc(NC(C)=O)c3)n2n1 | > 10 | IC50 (HEPG2TOX_HILL_SLOPE 1.56, HEPG2TOX_R_SQUARED 0.888, PBLUC_HILL_SLOPE 1.15, PBLUC_R_SQUARED 0.442, read-out: LUCIFERASE INFECTION ASSAY - IC50): 4.22 µM |
| O=C(NCCO)c1cccc(-c2ccc3ncc(-c4cccnc4)n3n2)c1 | 3.93 | IC50 (HEPG2TOX_HILL_SLOPE 1.56, HEPG2TOX_R_SQUARED 0.733, PBLUC_HILL_SLOPE 4.25, PBLUC_R_SQUARED 0.42, read-out: LUCIFERASE INFECTION ASSAY - IC50): 2.34 µM |
| COC1CC(O[C@H]2CC[C@]3(C)C4CC[C@]5(C)[C@@H](C6=CC(=O)OC6)CC[C@]5(O)[C@@H]4CC[C@]3(O)C2)OC(C)C1O (stereo not given in full) | 0.177 | IC50 (HEPG2TOX_HILL_SLOPE 1.6, HEPG2TOX_R_SQUARED 0.898, PBLUC_HILL_SLOPE 2.36, PBLUC_R_SQUARED 0.616, read-out: LUCIFERASE INFECTION ASSAY - IC50): 0.0698 µM |
| CNC(=O)c1cccc(-c2ccc3ncc(-c4cccc(C(F)(F)F)c4)n3n2)c1 | 2.95 | IC50 (HEPG2TOX_HILL_SLOPE 1.58, HEPG2TOX_R_SQUARED 0.903, PBLUC_HILL_SLOPE 3.01, PBLUC_R_SQUARED 0.663, read-out: LUCIFERASE INFECTION ASSAY - IC50): 1.42 µM |
| O=C(NCc1ccc(N2CCCC2=O)cc1)c1cccnc1OCC(F)(F)F | 4.11 | IC50 (HEPG2TOX_HILL_SLOPE 1.59, HEPG2TOX_R_SQUARED 0.969, PBLUC_HILL_SLOPE 1.45, PBLUC_R_SQUARED 0.646, read-out: LUCIFERASE INFECTION ASSAY - IC50): 0.899 µM |
| COc1cc(C2CC(=O)c3cn[nH]c3C2)cc(OC)c1OC (stereo not given) | > 10.9 | IC50 (HEPG2TOX_HILL_SLOPE 1.57, HEPG2TOX_R_SQUARED 0.775, PBLUC_HILL_SLOPE 1.9, PBLUC_R_SQUARED 0.199, read-out: LUCIFERASE INFECTION ASSAY - IC50): 5.83 µM |
| COc1cc(Nc2cncc(-c3ccc(N)cc3)n2)cc(OC)c1OC | 1.84 | IC50 (HEPG2TOX_HILL_SLOPE 1.6, HEPG2TOX_R_SQUARED 0.917, PBLUC_HILL_SLOPE 3.36, PBLUC_R_SQUARED 0.719, read-out: LUCIFERASE INFECTION ASSAY - IC50): 0.955 µM |
| CC(C)c1ccc(Nc2nccc3nc(-c4ccc(F)c(F)c4)[nH]c23)cc1 | > 10 | IC50 (HEPG2TOX_HILL_SLOPE 1.58, HEPG2TOX_R_SQUARED 0.81, PBLUC_HILL_SLOPE 0.658, PBLUC_R_SQUARED 0.852, read-out: LUCIFERASE INFECTION ASSAY - IC50): 0.969 µM |
| C[C@@H]1OC(O[C@H]2C[C@@H](O)[C@]3(CO)[C@@H]4C(CC[C@]3(O)C2)[C@@]2(O)CC[C@H](C3=CC(=O)OC3)[C@@]2(C)C[C@H]4O)[C@H](O)[C@H](O)[C@H]1O (stereo not given in full) | 0.179 | IC50 (HEPG2TOX_HILL_SLOPE 1.56, HEPG2TOX_R_SQUARED 0.89, PBLUC_HILL_SLOPE 1.86, PBLUC_R_SQUARED 0.797, read-out: LUCIFERASE INFECTION ASSAY - IC50): 0.0548 µM |
| Cc1ccc(NS(=O)(=O)c2cccc(C(=O)OC(C)C(=O)c3cc(C)n(-c4ccc(Cl)cc4)c3C)c2)cc1 (stereo not given) | 3.6 | IC50 (HEPG2TOX_HILL_SLOPE 1.57, HEPG2TOX_R_SQUARED 0.97, PBLUC_HILL_SLOPE 17.7, PBLUC_R_SQUARED 0.634, read-out: LUCIFERASE INFECTION ASSAY - IC50): 3.18 µM |
| FC(F)(F)Oc1cccc(-c2nc3ccnc(NCCc4ccccn4)c3[nH]2)c1 | 7.15 | IC50 (HEPG2TOX_HILL_SLOPE 1.56, HEPG2TOX_R_SQUARED 0.653, PBLUC_HILL_SLOPE 2.89, PBLUC_R_SQUARED 0.498, read-out: LUCIFERASE INFECTION ASSAY - IC50): 3.34 µM |
| COc1cccc(CN(C)S(=O)(=O)NC2CCC(C)CC2)c1 (stereo not given) | > 10 | IC50 (HEPG2TOX_HILL_SLOPE 1.57, HEPG2TOX_R_SQUARED 0.723, PBLUC_HILL_SLOPE 2.26, PBLUC_R_SQUARED 0.44, read-out: LUCIFERASE INFECTION ASSAY - IC50): 7.19 µM |
| O=C1N(Cc2ccccc2)C(=O)C2(CCN(CC3CC=CCC3)CC2)N1CCc1ccccc1 (stereo not given) | > 7.21 | IC50 (HEPG2TOX_HILL_SLOPE 1.57, HEPG2TOX_R_SQUARED 0.788, PBLUC_HILL_SLOPE 4.98, PBLUC_R_SQUARED 0.479, read-out: LUCIFERASE INFECTION ASSAY - IC50): 4.9 µM |
| O=C(Nc1ccc(N2CCOCC2)nc1)c1ccc(S(=O)(=O)N2CCCc3ccccc32)cc1 | > 10 | IC50 (HEPG2TOX_HILL_SLOPE 1.57, HEPG2TOX_R_SQUARED 0.865, PBLUC_HILL_SLOPE 1.66, PBLUC_R_SQUARED 0.608, read-out: LUCIFERASE INFECTION ASSAY - IC50): 2.98 µM |
| O=C(Nc1ccc(Oc2ccccc2)cc1)c1csc(C(O)c2cccc(OC(F)(F)F)c2)n1 (stereo not given) | 5.15 | IC50 (HEPG2TOX_HILL_SLOPE 1.57, HEPG2TOX_R_SQUARED 0.929, PBLUC_HILL_SLOPE 3.6, PBLUC_R_SQUARED 0.22, read-out: LUCIFERASE INFECTION ASSAY - IC50): 2.8 µM |
| COc1ccc(-c2cnc3cnc(-c4ccccc4)cn23)cc1 | 3.33 | IC50 (HEPG2TOX_HILL_SLOPE 1.56, HEPG2TOX_R_SQUARED 0.972, PBLUC_HILL_SLOPE 1.73, PBLUC_R_SQUARED 0.792, read-out: LUCIFERASE INFECTION ASSAY - IC50): 0.932 µM |
| Cc1nn(-c2ccccc2)c2sc(C(=O)NNc3nc(CN4CCOCC4)nc4scc(-c5ccccc5)c34)cc12 | > 10 | IC50 (HEPG2TOX_HILL_SLOPE 1.59, 8.29, HEPG2TOX_R_SQUARED 0.901, 0.855, PBLUC_HILL_SLOPE 12, PBLUC_R_SQUARED 0.591, read-out: LUCIFERASE INFECTION ASSAY - IC50): 8.46 µM |
| Cc1cc(C)cc(-n2c(C)cc(C(=O)CNC(=O)NCc3ccccc3)c2C)c1 | 3.27 | IC50 (HEPG2TOX_HILL_SLOPE 1.59, HEPG2TOX_R_SQUARED 0.958, PBLUC_HILL_SLOPE 2.43, PBLUC_R_SQUARED 0.455, read-out: LUCIFERASE INFECTION ASSAY - IC50): 1.32 µM |
| COc1ccccc1NC(=O)/C=c1\s/c(=C\c2cnn(-c3ccccc3)c2)c(=O)n1C | 0.632 | IC50 (HEPG2TOX_HILL_SLOPE 1.6, HEPG2TOX_R_SQUARED 0.888, PBLUC_HILL_SLOPE 1.61, PBLUC_R_SQUARED 0.941, read-out: LUCIFERASE INFECTION ASSAY - IC50): 0.161 µM |
| CC(C)(C)c1n[nH]c2c(-c3nc4ccccc4s3)c(N)nn2c1=O | 5.67 | IC50 (HEPG2TOX_HILL_SLOPE 1.58, HEPG2TOX_R_SQUARED 0.969, PBLUC_HILL_SLOPE 3.76, PBLUC_R_SQUARED 0.505, read-out: LUCIFERASE INFECTION ASSAY - IC50): 3.16 µM |
| Cc1ccc(S(=O)(=O)N2CCC[C@H]2C(=O)Nc2ccc(-c3nc4ccccc4[nH]3)cc2)cc1 | > 10 | IC50 (HEPG2TOX_HILL_SLOPE 1.59, HEPG2TOX_R_SQUARED 0.747, PBLUC_HILL_SLOPE 12.8, PBLUC_R_SQUARED 0.235, read-out: LUCIFERASE INFECTION ASSAY - IC50): 8.44 µM |
| Cn1ccc2cc(-c3cn4c(-c5cccc(F)c5)cnc4cn3)ccc21 | 2.18 | IC50 (HEPG2TOX_HILL_SLOPE 1.6, HEPG2TOX_R_SQUARED 0.918, PBLUC_HILL_SLOPE 3.4, PBLUC_R_SQUARED 0.713, read-out: LUCIFERASE INFECTION ASSAY - IC50): 1.14 µM |
| N#Cc1ccc(CN2CCN(CC(=O)Nc3nc(-c4c[nH]c5ccccc45)cs3)CC2)cc1 | 3.45 | IC50 (HEPG2TOX_HILL_SLOPE 1.59, HEPG2TOX_R_SQUARED 0.927, PBLUC_HILL_SLOPE 64.1, PBLUC_R_SQUARED 0.488, read-out: LUCIFERASE INFECTION ASSAY - IC50): 3.33 µM |
| O=C(NNC(=O)c1sc(-c2ccco2)nc1-c1ccccc1)c1ccccn1 | 3.33 | IC50 (HEPG2TOX_HILL_SLOPE 1.58, HEPG2TOX_R_SQUARED 0.893, PBLUC_HILL_SLOPE 37.6, PBLUC_R_SQUARED 0.722, read-out: LUCIFERASE INFECTION ASSAY - IC50): 3.14 µM |
| Nc1nccnc1C(=O)NNC(=O)COc1ccccc1Cc1ccccc1 | 3.67 | IC50 (HEPG2TOX_HILL_SLOPE 1.59, HEPG2TOX_R_SQUARED 0.794, PBLUC_HILL_SLOPE 15.4, PBLUC_R_SQUARED 0.41, read-out: LUCIFERASE INFECTION ASSAY - IC50): 3.18 µM |
| Cn1c(Nc2ccccc2)nc2cnc(-c3cccc4ccccc34)cc21 | 4.66 | IC50 (HEPG2TOX_HILL_SLOPE 1.56, HEPG2TOX_R_SQUARED 0.963, PBLUC_HILL_SLOPE 1.41, PBLUC_R_SQUARED 0.827, read-out: LUCIFERASE INFECTION ASSAY - IC50): 0.98 µM |
| COc1cc(/C=C/C(=O)Nc2ccc3c(c2)nc2n3CCCCC2)ccc1OS(=O)(=O)c1ccc(C)cc1 | 8.3 | IC50 (HEPG2TOX_HILL_SLOPE 1.59, HEPG2TOX_R_SQUARED 0.591, PBLUC_HILL_SLOPE 1.96, PBLUC_R_SQUARED 0.277, read-out: LUCIFERASE INFECTION ASSAY - IC50): 2.71 µM |
